Measurements from article PMC9698663, “Testing Serum Albumins and Cyclodextrins as Potential Binders of the Mycotoxin Metabolites Alternariol-3-Sulfate, Alternariol-9-Monomethylether and Alternariol-9-Monomethylether-3-Sulfate” (International Journal of Molecular Sciences, 2022).
Structures can show the parent of a compound that is named as a salt. Where two headings read alike, the source gives them in different places.

Columns and labels:
[1] = molecular target: T1, bovine serum albumin (BSA) (Bos taurus, UniProt P02769); test: Fluorescence quenching of bovine serum albumin by mycotoxins; assay type: binding; details: for BSA logKSV (±SEM): Stern–Volmer quenching constant KSV in L/mol, linear fitting; for effect of environmental pH on binding to BSA: pH 5.0, 6.5, 7.4, 8.5, AME: pH 8.5 vs acidic and physiological conditions
T1 construct: purchased Merck (Darmstadt, Germany)
T1 sequence (P02769 25-607): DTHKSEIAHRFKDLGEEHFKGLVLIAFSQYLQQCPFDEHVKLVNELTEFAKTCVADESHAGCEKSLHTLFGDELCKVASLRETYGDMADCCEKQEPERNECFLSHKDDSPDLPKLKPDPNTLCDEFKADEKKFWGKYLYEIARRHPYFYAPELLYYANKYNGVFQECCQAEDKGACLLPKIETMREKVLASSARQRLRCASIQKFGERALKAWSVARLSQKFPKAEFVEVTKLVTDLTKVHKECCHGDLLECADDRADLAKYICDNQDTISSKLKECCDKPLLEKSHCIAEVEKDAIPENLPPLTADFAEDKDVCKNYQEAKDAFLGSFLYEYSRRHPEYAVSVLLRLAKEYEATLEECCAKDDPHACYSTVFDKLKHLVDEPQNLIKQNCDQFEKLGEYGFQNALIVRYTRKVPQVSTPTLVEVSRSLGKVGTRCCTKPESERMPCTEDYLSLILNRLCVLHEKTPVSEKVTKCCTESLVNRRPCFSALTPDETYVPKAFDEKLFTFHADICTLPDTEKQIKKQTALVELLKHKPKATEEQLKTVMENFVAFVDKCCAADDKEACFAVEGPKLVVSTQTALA
Protocol: (§1) Fluorescence emission spectra were collected employing a Hitachi F-4500 fluorescence spectrophotometer (Tokyo, Japan) at 25 °C and in the presence of air. UV–Vis absorption spectra of AS, AME, and AMS were recorded using a Jasco V730 UV–Vis spectrophotometer (Tokyo, Japan). In fluorescence spectroscopic studies, the inner-filter effects of mycotoxins were corrected as has been previously reported.
(§2) Then, fluorescence quenching studies were also performed, where increasing amounts of AS, AME, or AMS (final concentrations: 0–5 μM) were added to 2 μM concentrations of albumins (HSA, BSA, PSA, or RSA), after which emission spectra were recorded (λex = 295 nm). After the correction of the inner-filter effects, mycotoxin-induced changes were evaluated at 340 nm.
(§3) Quenching experiments were evaluated by employing the graphical application of the Stern–Volmer equation (linear fitting) and using HyperQuad2006 software (non-linear fitting). Stern–Volmer quenching constants (KSV; unit: L/mol) were determined based on the Stern–Volmer equation [30]:(1) I0/I=1+KSV×Q where I0 and I are the fluorescence emission intensities of albumin in the absence and presence of the quencher (mycotoxins), respectively; [Q] is the molar (mol/L) concentration of mycotoxins. Binding constants (K; unit: L/mol) were calculated using HyperQuad2006 software, as has been previously reported.

[2] = molecular target: T2, porcine serum albumin (PSA) (Sus scrofa, UniProt P08835); test: Fluorescence quenching of porcine serum albumin by mycotoxins; assay type: binding; details: for PSA logKSV (±SEM): Stern–Volmer quenching constant KSV in L/mol, linear fitting
T2 construct: purchased Merck (Darmstadt, Germany)
T2 sequence (P08835 25-607): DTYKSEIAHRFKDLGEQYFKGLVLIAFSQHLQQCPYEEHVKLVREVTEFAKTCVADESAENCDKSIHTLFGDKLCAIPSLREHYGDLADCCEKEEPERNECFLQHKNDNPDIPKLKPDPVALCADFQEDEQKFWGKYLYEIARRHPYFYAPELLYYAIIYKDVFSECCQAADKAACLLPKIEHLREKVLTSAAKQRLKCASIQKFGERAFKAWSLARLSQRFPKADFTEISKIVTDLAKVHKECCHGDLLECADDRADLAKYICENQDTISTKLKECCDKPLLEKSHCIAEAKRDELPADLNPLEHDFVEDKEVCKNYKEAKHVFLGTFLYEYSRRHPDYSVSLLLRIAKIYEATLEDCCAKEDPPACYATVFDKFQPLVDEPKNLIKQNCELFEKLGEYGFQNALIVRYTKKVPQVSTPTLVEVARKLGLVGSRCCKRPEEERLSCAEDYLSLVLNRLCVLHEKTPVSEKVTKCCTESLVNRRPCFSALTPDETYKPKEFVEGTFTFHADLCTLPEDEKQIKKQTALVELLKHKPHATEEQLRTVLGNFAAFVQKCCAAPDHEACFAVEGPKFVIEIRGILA
Protocol: as §1, §2, §3

rat serum albumin (RSA) [3] = molecular target: T3, rat serum albumin (RSA) (Rattus norvegicus, UniProt P02770); test: Fluorescence quenching of rat serum albumin by mycotoxins; assay type: binding; details: for RSA logKSV (±SEM): Stern–Volmer quenching constant KSV in L/mol, linear fitting
T3 construct: purchased Merck (Darmstadt, Germany)
T3 sequence (P02770 25-608): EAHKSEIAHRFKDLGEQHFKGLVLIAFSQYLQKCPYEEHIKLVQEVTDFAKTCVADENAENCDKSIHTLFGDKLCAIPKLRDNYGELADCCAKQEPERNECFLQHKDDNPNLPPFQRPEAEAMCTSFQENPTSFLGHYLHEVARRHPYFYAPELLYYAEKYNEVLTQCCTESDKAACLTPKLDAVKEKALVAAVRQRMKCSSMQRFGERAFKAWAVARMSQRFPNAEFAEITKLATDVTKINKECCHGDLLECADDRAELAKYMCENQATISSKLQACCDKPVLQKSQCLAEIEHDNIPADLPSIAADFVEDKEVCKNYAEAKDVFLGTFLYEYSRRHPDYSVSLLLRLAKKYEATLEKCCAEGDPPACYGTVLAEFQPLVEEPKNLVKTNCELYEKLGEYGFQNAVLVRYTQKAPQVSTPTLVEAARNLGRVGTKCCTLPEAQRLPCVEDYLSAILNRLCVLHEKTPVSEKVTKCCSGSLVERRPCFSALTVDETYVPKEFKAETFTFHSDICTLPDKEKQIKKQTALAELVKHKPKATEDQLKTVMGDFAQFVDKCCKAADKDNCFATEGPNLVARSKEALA
Protocol: as §1, §2, §3

[4] = Fluorescence spectroscopic study of mycotoxin–SBECD complexes; assay type: binding; details: for SBECD logK (±SEM) BH-Plot / SBECD logK (±SEM) Hyperquad: binding constant K in L/mol; for SBECD logK (±SEM) BH-Plot: Benesi–Hildebrand plot; for SBECD logK (±SEM) BH-Plot / SBECD logK (±SEM) Hyperquad / logK with SBECD (approximate): sodium acetate buffer pH 5.0
Protocol: as §1
(§4) To examine the interaction of mycotoxins with the two CDs selected (SBECD and SGD), increasing amounts of the CDs (final concentrations: 0–10 mM) were added to mycotoxins (each 1 μM), then fluorescence emission spectra were recorded (λex = 335 nm for AS/AMS and 350 nm for AME; λem = 455 nm for AS, 485 nm for AME, and 460 nm for AMS). Binding constants (K, unit: L/mol) of mycotoxin–CD complexes were calculated employing the graphical application of the Benesi–Hildebrand equation (linear fitting) and using Hyperquad software (non-linear fitting). The Benesi–Hildebrand equation [25, 43] has been described as:(2) F0/F−F0=1/A+1/A×K×CD^n where, F0 and F are the fluorescence emission intensities of the mycotoxin in the absence and presence of CDs, respectively. [CD] is the molar concentration (mol/L) of the CD, while A is a constant, and n is the number of binding sites. Hyperquad evaluations were performed as has been previously reported.

[5] = Fluorescence spectroscopic study of mycotoxin–SGD complexes; assay type: binding; details: for SGD logK (±SEM) BH-Plot / SGD logK (±SEM) Hyperquad: binding constant K in L/mol; for SGD logK (±SEM) BH-Plot: Benesi–Hildebrand plot; for SGD logK (±SEM) BH-Plot / SGD logK (±SEM) Hyperquad / logK with SGD (approximate): sodium acetate buffer pH 5.0; for logK of mycotoxin–SGD complexes at pH 10.0: sodium borate buffer pH 10.0
Protocol: as §1, §4

[6] = molecular target: T4, human serum albumin (HSA) (Homo sapiens, UniProt P02768); test: Fluorescence quenching of human serum albumin by mycotoxins; assay type: binding; set-up: purchased Merck (Darmstadt, Germany); details: for HSA logKSV (±SEM): Stern–Volmer quenching constant KSV in L/mol, linear fitting
T4 sequence (P02768 25-609): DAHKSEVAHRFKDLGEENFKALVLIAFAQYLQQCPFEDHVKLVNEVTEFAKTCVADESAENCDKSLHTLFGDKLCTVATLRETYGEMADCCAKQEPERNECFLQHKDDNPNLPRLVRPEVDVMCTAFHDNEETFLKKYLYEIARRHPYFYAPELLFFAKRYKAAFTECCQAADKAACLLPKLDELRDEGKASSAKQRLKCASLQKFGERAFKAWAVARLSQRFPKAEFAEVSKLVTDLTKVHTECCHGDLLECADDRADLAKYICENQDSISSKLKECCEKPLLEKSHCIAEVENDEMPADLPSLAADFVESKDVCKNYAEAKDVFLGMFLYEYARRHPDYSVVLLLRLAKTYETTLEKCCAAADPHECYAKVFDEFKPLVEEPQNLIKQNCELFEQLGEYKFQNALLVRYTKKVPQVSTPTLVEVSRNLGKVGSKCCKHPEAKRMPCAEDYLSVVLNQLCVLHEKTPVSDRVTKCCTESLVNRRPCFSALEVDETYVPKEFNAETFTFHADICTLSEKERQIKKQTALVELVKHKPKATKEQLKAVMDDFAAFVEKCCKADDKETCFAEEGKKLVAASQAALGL
Protocol: as §1, §2, §3

[7] = molecular target: T4, human serum albumin (HSA); test: Ultracentrifugation studies (unbound fraction in presence of HSA); assay type: binding; set-up: purchased Merck (Darmstadt, Germany)
Protocol: To confirm the results of the quenching studies, the unbound fractions of AS, AME, and AMS were quantified in the presence of HSA. Applying the optimal conditions of ultracentrifugation, we can sediment albumin and albumin-bound molecules without the disruption of ligand–HSA interactions, then the free unbound fraction of the ligand molecule can be quantified from the protein-free supernatant. Samples contained AS, AME, or […] (each 10 μM) with HSA (20, 60, and 180 μM) in PBS (pH 7.4). These samples (900 μL) were centrifuged for 16 h at 170,000 g and 20 °C in 11 × 34 mm PC tubes (Beckman Coulter, Brea, CA, US), employing a Beckman Coulter Optima MAX-XP tabletop ultracentrifuge (with MLA-130 fixed-angle rotor). Then the concentrations of AS, AME, and AMS were directly analyzed from the supernatants with HPLC-FLD (see details in Section 3.7).
Assuming the 1:1 stoichiometry of complex formation, the binding constants (K) were calculated based on the following equation [36]:(3) K=MA/M×A where [M], [A], and [MA] are the molar concentrations (mol/L) of the free unbound mycotoxin, the free unbound albumin, and the mycotoxin–albumin complex, respectively.

[8] = molecular target: T4, human serum albumin (HSA); test: Ultrafiltration studies with Site I, Site II and Heme site markers; assay type: binding; set-up: purchased Merck (Darmstadt, Germany); details: mycotoxin 20 μM, PBS pH 7.4; for effect on filtered fraction of S-camptothecin (Heme site marker): camptothecin 1.0 μM + HSA 2.0 μM; for effect on filtered fraction of naproxen (Site II marker): naproxen 1.0 μM + HSA 1.5 μM; for effect on filtered fraction of warfarin (Site I marker): warfarin 1.0 μM + HSA 5.0 μM
Protocol: To test the binding sites of mycotoxin metabolites on HSA, ultrafiltration experiments were performed, where warfarin, naproxen, and S-camptothecin were used as Site I, Site II, and Heme site markers, respectively. Ultrafiltration studies were performed as described earlier, with minor modifications. Briefly, warfarin and naproxen samples were filtered using Amicon Ultra centrifugal filters (Merck, Darmstadt, Germany) with a 30 kDa molecular weight cut-off (MWCO) value. Camptothecin barely passed through these filters; therefore, the displacement of this Heme site marker was examined employing Pall Microsep Advance centrifugal devices (MWCO: 10 kDa; VWR, Budapest, Hungary). Each filter unit was washed once with water and once with PBS (pH 7.4). Thereafter, samples were centrifuged with a fixed angle rotor for 10 min at 7500 g and 25 °C. Before ultrafiltration, samples contained warfarin (1.0 μM) + HSA (5.0 μM), naproxen (1.0 μM) + HSA (1.5 μM), or camptothecin (1.0 μM) + HSA (2.0 μM) in the absence and presence of AS, AME, or AMS (each 20 μM) in PBS (pH 7.4). The filters used retain HSA (66.5 kDa) and albumin-bound ligands. Therefore, the elevated concentration of the site marker in the filtrate indicates its displacement from the protein [30, 36]. The concentrations of warfarin and camptothecin in the filtrate were analyzed by HPLC-FLD, while naproxen was quantified by HPLC-UV as has been previously reported.

rat serum albumin (RSA) [9] = molecular target: T3, rat serum albumin (RSA); set-up: method as in PMID 31083629; details: previous study; cited from earlier work
[10] = molecular target: T4, human serum albumin (HSA); details: cited from earlier work
[11] = molecular target: T4, human serum albumin (HSA); set-up: purchased Merck (Darmstadt, Germany); method as in PMID 31083629; details: previous study; cited from earlier work
[12] = binding constant K in L/mol, fluorescence quenching, Hyperquad non-linear fitting, read-out: BSA logK (±SEM) (converted)
[13] = binding constant K in L/mol, fluorescence quenching, Hyperquad non-linear fitting, read-out: PSA logK (±SEM) (converted)
[14] = binding constant K in L/mol, fluorescence quenching, Hyperquad non-linear fitting, read-out: RSA logK (±SEM) (converted)
[15] = binding constant K in L/mol, fluorescence quenching, Hyperquad non-linear fitting, PBS pH 7.4, read-out: HSA logK (±SEM) (converted)
[16] = mycotoxin 10 μM, HSA 20, 60, 180 μM, PBS pH 7.4, Equation (3), 1:1 stoichiometry, read-out: logK of mycotoxin–HSA complexes (ultracentrifugation) (converted)

| SMILES | BSA logKSV (±SEM) [1] | Kd [1, 12] | effect of environmental pH on binding to BSA [1] | PSA logKSV (±SEM) [2] | Kd [2, 13] | RSA logKSV (±SEM) (rat serum albumin (RSA) [3]) | Kd (rat serum albumin (RSA) [3]; [14]) | SBECD logK (±SEM) BH-Plot [4] | SBECD logK (±SEM) Hyperquad [4] | logK with SBECD (approximate) [4] | SGD logK (±SEM) BH-Plot [5] | SGD logK (±SEM) Hyperquad [5] | logK with SGD (approximate) [5] | logK of mycotoxin–SGD complexes at pH 10.0 [5] | HSA logKSV (±SEM) ([6]; PBS pH 7.4) | Kd [6, 15] | Kd [7, 16] | effect on filtered fraction of S-camptothecin (Heme site marker) [8] | effect on filtered fraction of naproxen (Site II marker) [8] | effect on filtered fraction of warfarin (Site I marker) [8] | further results |
| --- | --- | --- | --- | --- | --- | --- | --- | --- | --- | --- | --- | --- | --- | --- | --- | --- | --- | --- | --- | --- | --- |
| COc1cc(O)c2c(=O)oc3cc(OS(=O)(=O)O)cc(C)c3c2c1 [AMS, alternariol-9-monomethylether-3-sulfate ammonium salt] | 5.81 ± 0.01 | 0.933 µM | only minor changes | 5.60 ± 0.02 | 1.66 µM | 5.92 ± 0.03 | 0.741 µM | 2.96 ± 0.01 | 3.08 ± 0.01 | ≈ 3 | 2.95 ± 0.05 | 3.21 ± 0.04 | ≈ 3 | 3.39 ± 0.10 | 5.42 ± 0.06 | 2.63 µM | 3.24 µM | large | moderate | did not affect |  |
| COc1cc(O)c2c(=O)oc3cc(O)cc(C)c3c2c1 [AME, alternariol-9-monomethylether] | 4.93 ± 0.05 |  | approximately ten-fold higher affinity | 4.73 ± 0.06 |  | 5.15 ± 0.06 |  | 3.46 ± 0.01 | 3.56 ± 0.01 |  | 3.95 ± 0.01 | 4.06 ± 0.01 |  | 4.25 ± 0.06 | 4.86 ± 0.05 |  |  | no or only slight effects | no or only slight effects | statistically significant (p < 0.05) impact | Kd [1]: 9.12 µM; Kd [2]: 14.8 µM; Kd (rat serum albumin (RSA) [3]): 5.13 µM; stability of AME–SBECD complex compared to CD complexes of the sulfate metabolites ([4]; pH 5.0): three-fold; stability of AME–SGD complex compared to CD complexes of the sulfate metabolites ([5]; pH 5.0): ten-fold; Kd [6]: 11.5 µM; Kd [7]: 4.57 µM |
| Cc1cc(O)cc2oc(=O)c3c(O)cc(O)cc3c12 [AOH, Alternariol] |  |  |  |  |  |  |  |  |  |  |  |  |  |  |  |  |  |  |  |  | affinity for rat albumin compared to human or porcine albumins (rat serum albumin (RSA) [9]): almost eight-fold higher affinity; logK of AOH–HSA complex [10]: 5.6; displacement of naproxen (Site II marker) from HSA [11]: slightly displaced; displacement of warfarin (Site I marker) from HSA [11]: strongly displaced; effect on filtered fraction of camptothecin (Heme site marker) [11]: did not affect |
| Cc1cc(OS(=O)(=O)O)cc2oc(=O)c3c(O)cc(O)cc3c12 [AS, Alternariol-3-sulfate ammonium salt] | 5.60 ± 0.01 | 1.62 µM | only minor changes | 5.57 ± 0.02 | 1.66 µM | 5.85 ± 0.03 | 0.832 µM | 3.02 ± 0.01 | 3.02 ± 0.03 | ≈ 3 | 2.83 ± 0.01 | 2.99 ± 0.03 | ≈ 3 | 3.18 ± 0.58 | 5.44 ± 0.07 | 2.45 µM | 3.16 µM | marked increases | lower but significant (p < 0.01) effect | marked increases |  |
